The text below walks through data of patent publication US20190187148A1, “BIOMOLECULAR INTERACTION DETECTION DEVICES AND METHODS” (The Regents of the University of California, priority 2013, published 2019).

The assay concerns streptavidin.

Read-outs that look alike come from different tables or passages of the source.

Experimental: The fluid channel was at first flown with Tris buffer from syringe A into the device 400 received at the corresponding inlet 411.
The acquired signals were measured from the drain current of the exemplary FET 432. […] This was similarly repeated with 1 mM streptavidin protein in the Tris buffer from syringe B. For example, 20 mM Tris buffer (pH=7.4) was prefilled in the channel and then 1 mM avidin was flowed in the 20 mM Tris buffer in the channel.

`O=C(O)CCCC[C@@H]1SC[C@@H]2NC(=O)N[C@@H]21` [biotin]: the “binding indicated by FET signal waveform” value by setting is: (pre-mixed 0.2 mM streptavidin with 4 mM biotin (1:20) in Tris buffer) “some biotin molecules have bonded with streptavidin”; (pre-mixed 1 mM streptavidin with 4 mM biotin in Tris buffer) “streptavidin and biotin bind together”.
